These results are taken from the supplement of paper PMC11003180.

What all share (assay): drug sensitivity score (DSS) from 5-dose viability curve (DSS (area-based score, 0 = no response)); higher = more sensitive (stronger viability inhibition); extreme values may be limits of the assay
In assay [1] the test system is MDCK wild-type - doxycycline. To be noted: doxycycline: none; 72 h. Put shortly: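 Parental MDCK cells, grown without doxycycline, were seeded at 2000 cells/well into 384-well plates pre-spotted with an oncology library of 528 drugs at five doses (1-10,000 nM). After 72 h at 37 °C, CellTiter-Glo luminescence was read. Viability was scaled per plate between vehicle and positive controls, and drug sensitivity scores were derived from dose-response curve fits in the Breeze pipeline.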

For assay [2], the system named is MDCK p60AmotL2-inducible + doxycycline (p60AmotL2 expressing). To be noted: doxycycline: 10 ng/mL; 72 h. Put shortly: (§1)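 Two MDCK lines, parental and doxycycline-inducible, received doxycycline at 10 ng/mL in the medium before being plated at 2000 cells/well onto a pre-spotted 384-well oncology library of 528 drugs at five doses (1-10,000 nM). Incubation lasted 72 h at 37 °C. Viability was read by CellTiter-Glo luminescence, scaled per plate between vehicle and positive controls, and converted to drug sensitivity scores through Breeze curve fitting.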

In assay [3] the test system is MDCK wild-type + doxycycline. The settings on record: doxycycline: 10 ng/mL; 72 h. The method, boiled down: as §1

On to `C=CCc1cccc(/C=N/NC(=O)CN2CCN(Cc3ccccc3)CC2)c1O` [PAC-1], for which the drug sensitivity score was determined as 2.6 in assay [1], 4 in assay [2] and 4.2 in assay [3].
For `O=C(Nc1cccnc1)N1CCC(Cc2cccc(Oc3ccc(C(F)(F)F)cn3)c2)CC1` [PF-3845], in that order: 0, 0.8 and 0.
For `COc1ccccc1S(=O)(=O)Nc1ccc2c(c1)CN(C)C(=O)N2` [PFI-1], in that order: 0.3, 5.3 and 2.4.
For `CN1CCN(c2cc(C(=O)Nc3ccc4c(c3)-c3c(c(C(N)=O)nn3-c3ccc(F)cc3)CC4)c(Cl)cn2)CC1` [PHA 408], in that order: 0, 0.2 and 0.
For `O=C(Nc1cc(Cl)cc2c1[nH]c1cnccc12)c1cccnc1` [PS-1145], the drug sensitivity score in assay [1], in assay [2] and in assay [3] was 0 in each case.
`COc1cc(Br)c(Nc2nc(-c3c(C)nc4ncccn34)cs2)c(Br)c1` [PTC-209]: the drug sensitivity score in assay [1] is 9.6; in assay [2] it was 13.8; in assay [3], 11.4.
For `CC(=O)O[C@H]1C(=O)[C@@]2(C)[C@H]([C@H](OC(=O)c3ccccc3)[C@]3(O)C[C@H](OC(=O)[C@H](O)[C@@H](NC(=O)c4ccccc4)c4ccccc4)C(C)=C1C3(C)C)[C@]1(OC(C)=O)CO[C@@H]1C[C@@H]2O` [Paclitaxel], in that order: 15.8, 21.8 and 19.4.
For `C1=N/C2=N/c3ccc(OCCN4CCCC4)c(c3)COC/C=C/COCc3cccc(c3)C(=C1)N2` [Pacritinib], in that order: 10.1, 10 and 9.3.
For `CC(=O)c1c(C)c2cnc(Nc3ccc(N4CCNCC4)cn3)nc2n(C2CCCC2)c1=O` [Palbociclib], in that order: 0.9, 4.3 and 0.9.
Turning to `COc1ccc(COc2cc3oc(=O)c4cc(C(C)O)ccc4c3cc2OC)cc1` (stereo unspecified) [Palomid-529], the drug sensitivity score came to 0 in assay [1], 0.1 in assay [2] and 0 in assay [3].
As for `Cc1[nH]c2ccccc2c1CCNCc1ccc(/C=C/C(=O)NO)cc1` [Panobinostat], the drug sensitivity score is 15.2 in assay [1], 15 in assay [2] and 12.5 in assay [3].
For `Cc1ccc(Nc2nccc(N(C)c3ccc4c(C)n(C)nc4c3)n2)cc1S(N)(=O)=O` [Pazopanib], in that order: 0, 0 and 0.
As for `Nc1nc2[nH]cc(CCc3ccc(C(=O)N[C@@H](CCC(=O)O)C(=O)O)cc3)c2c(=O)[nH]1` [Pemetrexed], the drug sensitivity score stood at 5.5 in assay [1], 7.1 in assay [2] and 5.3 in assay [3].
In the case of `OC[C@H]1O[C@@H](n2cnc3c2N=CNC[C@H]3O)C[C@@H]1O` [Pentostatin], the drug sensitivity score in assay [1], in assay [2] and in assay [3] was 0 each time.
On to `CCCCCCCCCCCCCCCCCCOP(=O)([O-])OC1CC[N+](C)(C)CC1` [Perifosine], for which the drug sensitivity score in assay [1], in assay [2] and in assay [3] was 0 throughout.
On to `NS(=O)(=O)OC[C@@H]1C[C@@H](n2ccc3c(N[C@H]4CCc5ccccc54)ncnc32)C[C@@H]1O` [Pevonedistat], for which the drug sensitivity score in assay [1] was 9; in assay [2] it was 11.7; in assay [3], 9.7.
For `FC(F)(F)c1ccc(CNc2ccc(Cc3c[nH]c4ncc(Cl)cc34)cn2)cn1` [Pexidartinib], in that order: 0, 0.1 and 0.
For `CS(=O)(=O)N1CCN(Cc2cc3nc(-c4cccc5[nH]ncc45)nc(N4CCOCC4)c3s2)CC1` [Pictilisib], in that order: 6.9, 14.4 and 8.4.
For the compound `CC[C@@H]1C(=O)OC[C@@H]1Cc1cncn1C` [Pilocarpine], the drug sensitivity score in assay [1], in assay [2] and in assay [3] was 0 each time.
In the case of `CC(C)N(C[C@H]1O[C@@H](n2cnc3c(N)ncnc32)[C@H](O)[C@@H]1O)[C@H]1C[C@@H](CCc2nc3cc(C(C)(C)C)ccc3[nH]2)C1` [Pinometostat], the drug sensitivity score in assay [1], in assay [2] and in assay [3] was 0 throughout.
Take `Cc1ccc(=O)n(-c2ccccc2)c1` [Pirfenidone]: the drug sensitivity score in assay [1], in assay [2] and in assay [3] was 0 throughout.
On to `NCCNc1ccc(NCCN)c2c1C(=O)c1ccncc1C2=O` [Pixantrone], for which the drug sensitivity score in assay [1], in assay [2] and in assay [3] was 0 each time.
As for `c1cc(CN2CCCNCCNCCCNCC2)ccc1CN1CCCNCCNCCCNCC1` [Plerixafor], the drug sensitivity score in assay [1] stood at 0; in assay [2] it was 0.1; in assay [3], 0.
Turning to `CO[C@H](C(=O)[C@@H](O)[C@@H](C)O)[C@@H]1Cc2cc3cc(O[C@H]4C[C@@H](O[C@@H]5C[C@@H](O)[C@H](O)[C@@H](C)O5)[C@H](O)[C@@H](C)O4)c(C)c(O)c3c(O)c2C(=O)[C@H]1O[C@H]1C[C@@H](O[C@@H]2C[C@@H](O)[C@@H](O[C@@H]3C[C@](C)(O)[C@H](O)[C@@H](C)O3)[C@@H](C)O2)[C@H](O)[C@@H](C)O1` [Plicamycin], the drug sensitivity score stood at 10.4 in assay [1], 14.1 in assay [2] and 11.3 in assay [3].
As to `Nc1cccc2c1C(=O)N(C1CCC(=O)NC1=O)C2=O` (stereo unspecified) [Pomalidomide], the drug sensitivity score in assay [1], in assay [2] and in assay [3] was 0 each time.
As to `C=CC(=O)N1CCC(Oc2cc3c(Nc4ccc(Cl)c(Cl)c4F)ncnc3cc2OC)CC1` [Poziotinib], the drug sensitivity score in assay [1] is 9.2; in assay [2], 27.9; in assay [3], 14.3.
Regarding `CCCCc1nc2cc(/C=C/C(=O)NO)ccc2n1CCN(CC)CC` [Pracinostat], the drug sensitivity score in assay [1] is 15; in assay [2] it was 17.7; in assay [3] it was 15.9.
For `CC[C@H](C)C(=O)O[C@H]1C[C@H](O)C=C2C=C[C@H](C)[C@H](CC[C@@H](O)C[C@@H](O)CC(=O)O)[C@H]21` [Pravastatin], in that order: 0, 0 and 0.
For `C[C@]12C=CC(=O)C=C1CC[C@@H]1[C@@H]2[C@@H](O)C[C@@]2(C)[C@H]1CC[C@]2(O)C(=O)CO` [Prednisolone], in that order: 1.2, 0 and 0.
As to `COc1cccc(OCCCN)c1-c1cc(Nc2cnc(C#N)cn2)n[nH]1` [Prexasertib], the drug sensitivity score in assay [1] was 0.8; in assay [2], 3.5; in assay [3] it was 2.2.
For `Cn1cc(CNCC2CCN(c3ncc(C(=O)NO)cn3)CC2)c2ccccc21` [Quisinostat], in that order: 9.8, 12.7 and 8.6.
For `CC(C)(C)c1cc(NC(=O)Nc2ccc(-c3cn4c(n3)sc3cc(OCCN5CCOCC5)ccc34)cc2)no1` [Quizartinib], in that order: 3.3, 3.9 and 3.
For `Nc1cc(F)ccc1NC(=O)/C=C/c1cnn(C/C=C/c2ccccc2)c1` [RGFP966], in that order: 0, 1 and 0.
As for `COC(=O)c1ccc([C@H]2c3[nH]c4ccccc4c3C[C@H](C(=O)OC)N2C(=O)CCl)cc1` [RSL3], the drug sensitivity score in assay [1], in assay [2] and in assay [3] was 0 each time.
For the compound `Cc1cnc(NC(=O)Nc2cc(Br)c(C)cc2OC[C@@H]2CNCCO2)cn1` [Rabusertib], the drug sensitivity score in assay [1], in assay [2] and in assay [3] was 0 throughout.
On to `Cc1cn(-c2cc(NC(=O)c3ccc(C)c(Nc4nccc(-c5cnccn5)n4)c3)cc(C(F)(F)F)c2)cn1` [Radotinib], for which the drug sensitivity score in assay [1], in assay [2] and in assay [3] was 0 each time.
As to `CC(C)(C)Cn1c(N)nc2ccc(-c3[nH]c(C(C)(C)C)nc3-c3ccc(F)cc3)nc21` [Ralimetinib], the values for the drug sensitivity score in assay [1], in assay [2] and in assay [3] were 0, 4.4 and 3.5, respectively.
